One experiment has as its target T1, cdk2/cyclin E (Homo sapiens, UniProt P24941).
T1 construct: made in house; host or cells: insect cells (baculovirus co-infection)
Nature of the experiment: Cyclin-Dependent Kinase 2 Assay (cdk2/cyclin E, GST-Rb substrate). The format is biochemical. To be noted: recombinant cdk2/cyclin E, 10 μM ATP, 30 min at 30° C., several values in a cell = separate determinations, read-out: CDK-2 Inhibition IC50. On the procedure:
Substrate: GST-Rb as described above for cdk4/cyclin D1
Assay conditions for cdk2/cyclin E were identical to those for cdk4/cyclin D1 including the substrate. The concentration of recombinant cdk2/cyclin E in the assay was 0.1 μg per 100 μl assay. Incubation was for 30 min at 30° C.

The target in a further experiment is T2, cdk4/cyclin D1 (Homo sapiens, UniProt P11802).
T2 construct: made in house; host or cells: Sf9 insect cells (Bac-to-Bac baculovirus, pFastBac)
Nature of the experiment: Cyclin-dependent Kinase 4 Assay (cdk4/cyclin D1, GST-Rb substrate). It is filed as biochemical. Conditions: cdk4/cyclin D1 insect cell lysate, 10 μM ATP, 30 min at 37° C., several values = separate determinations, read-out: CDK4 Inhibition IC50. As for the experimental part: The IC50 values for cdk4 inhibition were by the following method:
The transformed bacteria were grown overnight to saturation, then diluted in YT broth and incubated at 37° C. for 2 h. The protein was induced by incubation with 0.1 mM isopropylthioglycoside for 3 h. Following sedimentation by centrifugation, the cells were lysed by sonication in STE buffer ([…] NaCl, 10 mM Tris, pH 8.0, 1 mM EDTA) containing 10% sarkosyl. Particulate matter was removed by centrifugation and the lysate was incubated with glutathione-Sepharose at 4° C. The beads were washed with kinase buffer and then quantitation of Coomassie blue-stained proteins separated by SDS-PAGE was performed using a protein standard of known concentration.
The cDNA for human cyclin D1 was cloned by RT PCR using […] from MCF-7 cells. […] Bacmid DNA was used to transfect Sf9 insect cells to produce recombinant virus. Following plaque purification of the virus, the viral preparations were amplified until high titer stocks were acheived.
Lysates were prepared by lysis of Sf9 cells coinfected with cdk4 and cyclin D1 in 50 mM HEPES, pH 7.5, 10 mM MgCl2, 1 mM DTT, 0.1 mM phenylmethylsulfonyl fluoride, 5 μg/ml aprotinin, and 5 μg/ml leupeptin using a PARR bomb under 500 p.s.i nitrogen pressure for 5 min at 4° C. Insoluble material was sedimented at 10,000×g for 20 min at 4° C. Glycerol was added to the supernatant to 10% and stored at −80° C. in aliquots.
Pre-wet Millipore Multiscreen 96-well filter plates (0.65 μm Durapore filters) with 200 μl kinase buffer (50 mM HEPES, pH 7.5, 10 mM MgCl2, 1 mM EGTA). GST-Rb (0.5 μg) bound to glutathione-Sepharose beads is added in 50 μl per well and the solution removed by application of vacuum. […] Add 0.1 μg cdk4/cyclin D1 (insect cell lysate) to initiate assay. Incubate 30 min at 37° C. Terminate reaction by filtration on Millipore Vacuum Manifold. Wash four times with TNEN (20 mM Tris, pH 8.0, 100 mM Na Cl, 1 mM EDTA, 0.5% nonidet P-40). After drying the plates at room temperature, the filter plates were placed in adapter plates (Packard) and 40 μl of Microscint-O® (Packard) was added to each well. Top Seal A film was used to cover the plates before counting in a Top Count Scintillation Counter.

A further experiment deals with HT-29. Nature of the experiment: In vitro tumor cell proliferation, HT-29. The format is cell-based, human. To be noted: many values given with an undefined *, read-out: In vitro Tumor Cell Proliferation (IC50, μM) Colon HT-29. On the procedure:
(§1) The proliferation of tumor cells was measured using a sulforhodamine B assay as described in Skehan, P., et al., J. Natl. Cancer Inst. […] Tumor cells were harvested with trypsin-EDTA, cells that excluded trypan blue were counted, added to 96-well plates and incubated overnight at 37° C. Drug was added to the wells following dilution in culture medium. Three days later, the medium was removed and replenished with medium containing fresh drug and incubated an additional 4 days. The cells were then fixed with 0.1 ml 10% trichloroacetic acid for 60 min at 4° C. The plates were rinsed five times with tap water, air-dried and stained for 30 min with 0.4% sulforhodamine B in 1% acetic acid and air-dried.
(§2) Alternatively, the CyQUANT cell proliferation assay was used to quantitate cell proliferation.
(§3) Alternatively, the CyQUANT cell proliferation assay was used to quantify tumor cell proliferation. Tumor cells were harvested with trypsin-EDTA, cells that excluded trypan blue were counted, added to 96-well plates and incubated overnight at 37° C. Drug was added to the wells following dilution in culture medium. Three days later the medium was removed and the plates frozen at −80° C. for at least 30 minutes.
HT-29 is a human colon adenocarcinoma, moderately well-differentiated grade II (HTB 38);

Another experiment concerns Colo-205. Nature of the experiment: In vitro tumor cell proliferation, Colo-205. The format is cell-based. Conditions: values given with an undefined *, read-out: In vitro Tumor Cell Proliferation (IC50, μM) Colon Colo-205. As for the experimental part:
as §1, §2, §3

The test system of the next experiment is A549. Nature of the experiment: In vitro tumor cell proliferation, A549. To be noted: many values given with an undefined *, read-out: In vitro Tumor Cell Proliferation (IC50, μM) Lung A549. The format is cell-based, human. As for the experimental part: as §1, §2, §3
The subject of another experiment is DMS-114. Nature of the experiment: In vitro tumor cell proliferation, DMS-114. Conditions: many values given with an undefined *, read-out: In vitro Tumor Cell Proliferation (IC50, μM) Lung DMS-114. It is filed as cell-based, human. As for the experimental part:
DMS-1 14: human small cell lung carcinoma;
as §1, §2, §3

In a further experiment the test system is PC-3. Nature of the experiment: In vitro tumor cell proliferation, PC-3. To be noted: many values given with an undefined *, read-out: In vitro Tumor Cell Proliferation (IC50, μM) Prostate PC-3. It is filed as cell-based, human. On the procedure:
as §1, §2, §3

The test system of a further experiment is DU145. Nature of the experiment: In vitro tumor cell proliferation, DU145. It is filed as cell-based, human. Conditions: many values given with an undefined *, read-out: In vitro Tumor Cell Proliferation (IC50, μM) Prostate DU145. As for the experimental part:
as §1, §2, §3

The next experiment concerns MDA-MB-231. Nature of the experiment: In vitro tumor cell proliferation, MDA-MB-231. It is filed as cell-based, human. Conditions: sulforhodamine B or CyQUANT assay, many values given with an undefined *, read-out: In vitro Tumor Cell Proliferation (IC50, μM) Breast MDA-MB-231. As for the experimental part: as §1, §2, §3
MDA-MB-23 1 is a human breast adenocarcinoma, hormone-independent (HTB 26);

Another experiment concerns MDA-MB-435. Nature of the experiment: In vitro tumor cell proliferation, MDA-MB-435. It is filed as cell-based. To be noted: values given with an undefined *, read-out: In vitro Tumor Cell Proliferation (IC50, μM) Breast MDA-MB-435. On the procedure: as §1, §2, §3
Where [1] appears, read: Homo sapiens, COLO 205, Colo-205.
The mark [2] stands for this setting: Homo sapiens, MDA-MB-231, MDA-MB-231.
Where [3] appears, read: Homo sapiens, MDA-MB-435, MDA-MB-435.

pIC50: −log10 of the molar value. “And” between values parts separate entries of the source, which are not always exact repeats. Equal values may be shown once. Where a name gives a salt, the structure may show the parent alone. Read-outs that look alike come from different tables or passages of the source.

T2 sequence (P11802 whole entry): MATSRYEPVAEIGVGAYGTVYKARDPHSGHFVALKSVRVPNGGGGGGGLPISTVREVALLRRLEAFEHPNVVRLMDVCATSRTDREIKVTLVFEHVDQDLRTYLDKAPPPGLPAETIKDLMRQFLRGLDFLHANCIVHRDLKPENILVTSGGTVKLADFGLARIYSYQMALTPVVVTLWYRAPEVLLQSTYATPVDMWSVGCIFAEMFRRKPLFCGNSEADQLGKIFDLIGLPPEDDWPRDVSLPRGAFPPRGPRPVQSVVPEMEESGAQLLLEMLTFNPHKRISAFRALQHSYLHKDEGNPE
T2 sequence (P24385 whole entry partner): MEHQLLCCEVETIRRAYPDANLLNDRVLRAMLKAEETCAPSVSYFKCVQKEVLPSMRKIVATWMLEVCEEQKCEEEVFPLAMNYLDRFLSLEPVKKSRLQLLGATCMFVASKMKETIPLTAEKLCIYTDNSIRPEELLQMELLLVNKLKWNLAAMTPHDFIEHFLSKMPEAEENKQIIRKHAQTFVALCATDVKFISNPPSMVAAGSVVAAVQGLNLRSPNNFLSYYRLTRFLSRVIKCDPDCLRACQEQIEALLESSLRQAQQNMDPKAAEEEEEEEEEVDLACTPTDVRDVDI

Usually pIC50 stands for the negative decadic logarithm of the IC50, by convention in mol/L. Turning to `N[C@H]1CC[C@H](Nc2nc(NCC3CCC(CO)CC3)c3ncn(C4CCCC4)c3n2)CC1` (stereo partly drawn) [Example 10, 2-[Trans-(4-aminocyclohexyl)amino]-6-[4-(hydroxymethyl)cyclohexanemethylamino]-9-cyclopentylpurine dihydrochloride], the negative-log IC50 (pIC50) is 7.80 and 7.89 on cdk2/cyclin E; 5.80 at cdk4/cyclin D1. The IC50 with HT-29 (HT-29, dihydrochloride) came out at 1.7 µM; in the experiment on HT-29 (Homo sapiens, HT-29, HT-29), 1.6 µM; in the experiment on Colo-205 (Colo-205, dihydrochloride), 2.6 µM; in the experiment with Colo-205 (setting [1]), 1.3 µM; in the experiment on A549 (A549, dihydrochloride), 2.6 µM; in the experiment on A549 (Homo sapiens, A549, A549), 1.3 µM. Further, the IC50 is 1.4 µM in the experiment on DMS-114 (DMS-114, dihydrochloride); 1.5 µM in the experiment with DMS-114 (Homo sapiens, DMS-114, DMS-114); 1.1 µM in the experiment on PC-3 (Homo sapiens, PC-3, PC-3); 1 µM with PC-3 (PC-3, dihydrochloride); 2.6 µM with DU145 (DU145, dihydrochloride); 1.3 µM in the experiment on DU145 (Homo sapiens, DU-145, DU145).
On to `COc1ccc(CCNc2nc(N[C@H]3CC[C@H](N)CC3)nc3c2ncn3C2CCCC2)cc1` [Example 14, 2-[Trans-(4-aminocyclohexyl)amino]-6-[2-(4-methoxyphenyl)ethylamino]-9-cyclopentylpurine dihydrochloride], for which the pIC50 at cdk2/cyclin E was 7.00; at cdk4/cyclin D1, 5.82. The IC50 in the experiment with MDA-MB-231 (setting [2]) amounted to 3 µM; in the experiment on HT-29 (Homo sapiens, HT-29, HT-29), 2.7 µM; with Colo-205 (setting [1]), 2.4 µM; with A549 (Homo sapiens, A549, A549), 1.4 µM; in the experiment with DMS-114 (Homo sapiens, DMS-114, DMS-114), 1.3 µM; in the experiment with PC-3 (Homo sapiens, PC-3, PC-3) it was 2.3 µM. In addition, the IC50 in the experiment with DU145 (Homo sapiens, DU-145, DU145) worked out at 2.8 µM.
Consider `COc1ccc(CNc2nc(N[C@H]3CC[C@H](N)CC3)nc3c2ncn3C(C)C)cc1OC` [Example 19, 2-[Trans-(4-aminocyclohexyl)amino]-6-[(3.4-dimethoxybenzyl)amino]-9-(2-propyl)purine dihydrochloride], for which the results for the negative logarithm of the IC50 (pIC50) at cdk2/cyclin E and on cdk4/cyclin D1 were 6.27 and 4.70, respectively. Besides, the IC50 in the experiment with MDA-MB-231 (setting [2]) was 15 µM; in the experiment on MDA-MB-435 (setting [3]), 20 µM; with Colo-205 (Colo-205, dihydrochloride) it was 10 µM; in the experiment with Colo-205 (setting [1]) it was 12 µM; with A549 (Homo sapiens, A549, A549), 22 µM; in the experiment with DMS-114 (DMS-114, dihydrochloride), 15 µM. In addition, in the experiment with DMS-114 (Homo sapiens, DMS-114, DMS-114), the IC50 was determined as 12 µM.
For `COCCCNc1nc(N[C@H]2CC[C@H](N)CC2)nc2c1ncn2C1CCCC1` [Example 22, 2-[Trans-(4-aminocyclohexyl)amino]-6-(3-methoxypropylamino)-9-cyclopentylpurine dihydrochloride], the negative logarithm of the IC50 (pIC50) at cdk2/cyclin E is 6.43; at cdk4/cyclin D1, 6.40 and 5.89 and 6.24. The IC50 in the experiment on MDA-MB-231 (setting [2]) was determined as 4.2 µM; in the experiment on MDA-MB-231 (MDA-MB-231, dihydrochloride) it was 8.2 µM; in the experiment with MDA-MB-435 (setting [3]), 10 µM; in the experiment on MDA-MB-435 (MDA-MB-435, dihydrochloride) it was 11 µM; in the experiment on HT-29 (HT-29, dihydrochloride), 4.4 µM; in the experiment with HT-29 (Homo sapiens, HT-29, HT-29), 4 µM. The IC50 in the experiment with Colo-205 (Colo-205, dihydrochloride) worked out at 5.3 µM; in the experiment with Colo-205 (setting [1]) it was 3.9 µM; in the experiment on DMS-114 (DMS-114, dihydrochloride), 2.8 µM; in the experiment with DMS-114 (Homo sapiens, DMS-114, DMS-114), 2.7 µM; in the experiment on PC-3 (Homo sapiens, PC-3, PC-3), 2.5 µM; in the experiment on PC-3 (PC-3, dihydrochloride), 2.3 µM.
Consider `N[C@H]1CC[C@H](Nc2nc(NCCOCCO)c3ncn(C4CCCC4)c3n2)CC1` [Example 26, 2-[Trans-(4-aminocyclohexyl)amino]-6-(2-hydroxyethoxyethylamino)-9-cyclopentylpurine dihydrochloride], for which the negative logarithm of the IC50 (pIC50) at cdk2/cyclin E was 6.96; at cdk4/cyclin D1 it was 6.28. The IC50 stood at 23 µM with MDA-MB-435 (setting [3]); 22 µM in the experiment on MDA-MB-435 (MDA-MB-435, dihydrochloride); 22 µM in the experiment on HT-29 (HT-29, dihydrochloride); 15 µM with Colo-205 (Colo-205, dihydrochloride); 17 µM in the experiment on A549 (A549, dihydrochloride); 15 µM in the experiment with DMS-114 (DMS-114, dihydrochloride). Also, the IC50 in the experiment with DMS-114 (Homo sapiens, DMS-114, DMS-114) amounted to 17 µM; in the experiment with PC-3 (Homo sapiens, PC-3, PC-3), 15 µM; in the experiment with PC-3 (PC-3, dihydrochloride), 8 µM.
Take `N[C@H]1CC[C@H](Nc2nc(NC3CCN(Cc4ccccc4Cl)CC3)c3ncn(C4CCCC4)c3n2)CC1` [Example 43, 2-[Trans-(4-aminocyclohexyl)amino]-6-[4-(1-(2-chlorobenzyl))piperidinylamino]-9-cyclopentylpurine]: the pIC50 on cdk2/cyclin E was 6.82 and 6.70; on cdk4/cyclin D1, 5.41 and 5.11. Further, the IC50 with MDA-MB-231 (setting [2]) is 0.37 µM; in the experiment with MDA-MB-231 (MDA-MB-231) it was 0.43 µM; in the experiment on MDA-MB-435 (setting [3]), 0.33 µM; with MDA-MB-435 (MDA-MB-435) it was 0.57 µM; in the experiment with Colo-205 (Colo-205) it was 0.23 µM; in the experiment on Colo-205 (setting [1]), 0.28 µM. Also, the IC50 came to 0.23 µM in the experiment with A549 (A549); 0.25 µM in the experiment with A549 (Homo sapiens, A549, A549); 0.41 µM in the experiment with DMS-114 (DMS-114); 0.43 µM with DMS-114 (Homo sapiens, DMS-114, DMS-114); 0.32 µM in the experiment on DU145 (DU145); 0.3 µM with DU145 (Homo sapiens, DU-145, DU145).

The values above are taken from US6479487B1, “6, 9-disubstituted 2-[trans-(4-aminocyclohexyl)amino] purines” (Aventis Pharmaceuticals Inc., priority 1998, dated 2002).
